The values that follow come from patent publication US11142525B2 (Pfizer Inc., priority 2018, dated 2021).

pIC50, pKi: −log10 of the molar value. Where two headings read alike, the source gives them in different places.

Assay [1] concerns phospho-SLP-76 (Ser376) in Jurkat cells. Description: Phospho-SLP-76 (Ser376) Homogeneous Time Resolved Fluorescence (HTRF) assay in Jurkat cells. Particulars: Homo sapiens, read-out: SLP76 Assay_IC50. The class given is cell-based. The protocol:
Jurkat cells were seeded at 90,000 cells/well in 90 uL of RPMI1640 growth medium containing 10% FBS and incubated at 37° C. with 5% CO2 overnight. The following day, compounds were serially diluted from a 10 mM top dose for an 11-point 3 fold dilution curve in DMSO. Compounds were intermediately diluted 1:100 into growth media prior to diluting 1:10 on cells for final concentration 10 μM to 0.1 nM in 0.1% DMSO. After 30 minutes pre-treatment with compounds, the cells were stimulated using 200 μg/mL of F(ab)2 complexed anti-CD3 (clone UCTH1) for 15 min at 37° C. with 5% CO2. Stimulation was stopped with ice cold PBS and cells were harvested by centrifugation before lysis in Cisbio lysis buffer (Cisbio, Bedford, Mass.). Lysates were transferred to white, low-volume plates containing anti-phospho-SLP-76-Cryptate plus anti-phospho-SLP-76-d2 HTRF antibodies and incubated overnight at room temperature protected from light according to the manufacturer's protocol (Cisbio, Bedford, Mass.). HTRF was measured on a Perkin Elmer Envision and IC50 values were calculated by concentration-response curve fitting utilizing four-parameter nonlinear regression analyses.
For orientation: Time-resolved FRET reads energy transfer from a long-lived donor to a nearby acceptor.

The target in assay [2] is human full-length recombinant HPK1 (Homo sapiens (Human), UniProt Q92918). Description: HPK1 biochemical enzyme assay, microfluidic mobility shift assay (MSA). Particulars: read-out: HPK1 Enzyme Assay_Ki. The protocol:
HPK1 enzyme inhibition was measured using a microfluidic mobility shift assay (MSA). […] The reactions were conducted for 60 min at 37° C., stopped by the addition of 50 μL of 0.015 M EDTA, pH 8, and the extent of reactions (˜15-20% conversion with no inhibitor) was determined after electrophoretic separation of the fluorescently labeled peptide substrate and phosphorylated product on an LabChip EZ Reader II (PerkinElmer, Inc., Waltham, Mass.). […]

Setting [3] is: 30 min pre-treatment, anti-CD3 stimulation 15 min, HTRF.
[4] abbreviates: mobility shift assay, 75 μM ATP, Morrison equation, tight-binding competitive inhibition.
The mark [5] stands for this setting: Phospho-SLP-76 (Ser376) HTRF, anti-CD3 stimulation.

human full-length recombinant HPK1, sequence (Q92918 whole entry): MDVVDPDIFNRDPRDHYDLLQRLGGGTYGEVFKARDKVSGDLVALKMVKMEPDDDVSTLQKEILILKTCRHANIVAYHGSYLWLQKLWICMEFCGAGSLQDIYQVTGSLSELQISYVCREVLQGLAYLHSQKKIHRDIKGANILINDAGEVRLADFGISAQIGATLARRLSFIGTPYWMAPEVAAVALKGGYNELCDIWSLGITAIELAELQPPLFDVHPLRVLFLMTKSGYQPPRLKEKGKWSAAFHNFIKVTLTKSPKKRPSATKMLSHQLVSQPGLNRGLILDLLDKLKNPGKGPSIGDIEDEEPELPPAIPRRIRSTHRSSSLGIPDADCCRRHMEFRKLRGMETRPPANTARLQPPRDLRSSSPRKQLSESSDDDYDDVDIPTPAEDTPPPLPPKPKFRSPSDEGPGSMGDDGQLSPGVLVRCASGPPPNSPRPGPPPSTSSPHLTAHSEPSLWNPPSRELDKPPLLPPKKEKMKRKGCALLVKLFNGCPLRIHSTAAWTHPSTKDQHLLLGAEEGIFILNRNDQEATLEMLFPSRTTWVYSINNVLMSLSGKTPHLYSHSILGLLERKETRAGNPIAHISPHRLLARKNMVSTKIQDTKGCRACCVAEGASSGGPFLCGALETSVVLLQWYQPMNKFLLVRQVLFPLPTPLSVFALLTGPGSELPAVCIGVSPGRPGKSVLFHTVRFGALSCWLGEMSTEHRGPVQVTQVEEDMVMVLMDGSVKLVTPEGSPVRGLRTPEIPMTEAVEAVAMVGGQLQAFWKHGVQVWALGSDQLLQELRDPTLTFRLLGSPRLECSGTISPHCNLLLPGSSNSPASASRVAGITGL

For `CC[C@@H](CC(F)(F)F)n1cnnc1-c1cccc(N2Cc3c(cc(N(C)C)nc3CNC)C2=O)n1` (single isomer, unassigned) [Example 18, 6-(dimethylamino)-4-[(methylamino)methyl]-2-(6-{4-[(3ξ)-1,1,1-trifluoropentan-3-yl]-4H-1,2,4-triazol-3-yl}pyridin-2-yl)-2,3-dihydro-1H-pyrrolo[3,4-c]pyridin-1-one], the pIC50 in assay [1] (setting [3]) was 7.00. In addition, the pKi in assay [2] (setting [4]) is above 10.30.
Regarding `CCC(CC(F)(F)F)n1cnnc1-c1cccc(N2Cc3c(cc(C4(C)CC4)nc3CNC)C2=O)n1` (single isomer, unassigned) [Example 180], in assay [2] (HPK1 mobility shift assay), the pKi is 7.60.
Same read-out and setting: under `CCC(CC(F)(F)F)n1cnnc1-c1cccc(N2Cc3c(cc(C4(C)CC4)nc3CNC)C2=O)n1` (single isomer, unassigned) [Example 181] stands 9.89.
On to `CC[C@H](CO)n1cnnc1-c1cccc(N2Cc3c(cc(C4(C)CC4)nc3CNC)C2=O)n1` (single isomer, unassigned) [Example 183], for which the pKi in assay [2] (HPK1 mobility shift assay) was 9.46.
Take `CC[C@@H](CO)n1cnnc1-c1cccc(N2Cc3c(cc(C4(C)CC4)nc3CNC)C2=O)n1` (single isomer, unassigned) [Example 184]: the pKi in assay [2] (HPK1 mobility shift assay) was 8.94.
Consider `CNCc1nc(N2[C@H](C)C[C@H]2C)cc2c1CN(c1cccc(-c3nncn3C(C)C)n1)C2=O` [Example 3, 6-[(2R,4R)-2,4-dimethylazetidin-1-yl]-4-[(methylamino)methyl]-2-{6-[4-(propan-2-yl)-4H-1,2,4-triazol-3-yl]pyridin-2-yl}-2,3-dihydro-1H-pyrrolo[3,4-c]pyridin-1-one], for which, in assay [2] (setting [4]), the pKi is 9.11.
In the case of `CNCc1nc(N2CCCC2)cc2c1CN(c1cccc(-c3nncn3[C@@H](C)CC(F)(F)F)n1)C2=O` [Example 15, 4-[(methylamino)methyl]-6-(pyrrolidin-1-yl)-2-(6-{4-[(2S)-4,4,4-trifluorobutan-2-yl]-4H-1,2,4-triazol-3-yl}pyridin-2-yl)-2,3-dihydro-1H-pyrrolo[3,4-c]pyridin-1-one], the pIC50 in assay [1] (setting [3]) is 6.87.
With `CNCc1nccc2c1CN(c1cccc(-c3nncn3C(C)C)n1)C2=O` [Example 23, 4-[(methylamino)methyl]-2-{6-[4-(propan-2-yl)-4H-1,2,4-triazol-3-yl]pyridin-2-yl}-2,3-dihydro-1H-pyrrolo[3,4-c]pyridin-1-one], the pKi in assay [2] (setting [4]) was 6.85.
As to `CNCc1nc(NC)cc2c1CN(c1cccc(-c3nncn3C(C)C)n1)C2=O` [Example 24], in assay [1] (setting [3]), the pIC50 was 6.31.
`CNCc1nc(N2[C@H]3CC[C@@H]2CC3)cc2c1CN(c1cccc(-c3nncn3C(C)C)n1)C2=O` [Example 25, 6-[(1s,4s)-7-azabicyclo[2.2.1]hept-7-yl]-4-[(methylamino)methyl]-2-{6-[4-(propan-2-yl)-4H-1,2,4-triazol-3-yl]pyridin-2-yl}-2,3-dihydro-1H-pyrrolo[3,4-c]pyridin-1-one]: the pKi in assay [2] (setting [4]) is 9.00.
For the compound `CNCc1nc(N2[C@H](C)CC[C@@H]2C)cc2c1CN(c1cccc(-c3nncn3C(C)C)n1)C2=O` [Example 27, 6-[(2R,5S)-2,5-dimethylpyrrolidin-1-yl]-4-[(methylamino)methyl]-2-{6-[4-(propan-2-yl)-4H-1,2,4-triazol-3-yl]pyridin-2-yl}-2,3-dihydro-1H-pyrrolo[3,4-c]pyridin-1-one], the pKi in assay [2] (setting [4]) is 9.72.
As to `CC(C)n1cnnc1-c1cccc(N2Cc3c(cc(C4CC4)nc3CN)C2=O)n1` [Example 31, 4-(aminomethyl)-6-cyclopropyl-2-{6-[4-(propan-2-yl)-4H-1,2,4-triazol-3-yl]pyridin-2-yl}-2,3-dihydro-1H-pyrrolo[3,4-c]pyridin-1-one], the pKi in assay [2] (setting [4]) was 9.18.
`CNCc1nc(C(F)(F)F)cc2c1CN(c1cccc(-c3nncn3C(C)C)n1)C2=O` [Example 52, 4-[(methylamino)methyl]-2-{6-[4-(propan-2-yl)-4H-1,2,4-triazol-3-yl]pyridin-2-yl}-6-(trifluoromethyl)-2,3-dihydro-1H-pyrrolo[3,4-c]pyridin-1-one]: in assay [2] (setting [4]), the pKi was 7.05.
Take `CCCn1cnnc1-c1cccc(N2Cc3c(cc(N4CCC[C@H]4C)nc3CNC)C2=O)n1` [Example 55, 4-[(methylamino)methyl]-6-[(2R)-2-methylpyrrolidin-1-yl]-2-[6-(4-propyl-4H-1,2,4-triazol-3-yl)pyridin-2-yl]-2,3-dihydro-1H-pyrrolo[3,4-c]pyridin-1-one]: the pKi in assay [2] (setting [4]) was above 10.22.
`CCCn1c(C)nnc1-c1cccc(N2Cc3c(cc(N4CCC[C@H]4C)nc3CNC)C2=O)n1` [Example 62, 4-[(methylamino)methyl]-2-[6-(5-methyl-4-propyl-4H-1,2,4-triazol-3-yl)pyridin-2-yl]-6-[(2R)-2-methylpyrrolidin-1-yl]-2,3-dihydro-1H-pyrrolo[3,4-c]pyridin-1-one]: the pIC50 in assay [1] (setting [3]) is 7.38.
For the compound `CCCn1cnnc1-c1cccc(N2Cc3c(cc(N(C)C(C)C)nc3CNC)C2=O)n1` [Example 63, 4-[(methylamino)methyl]-6-[methyl(propan-2-yl)amino]-2-[6-(4-propyl-4H-1,2,4-triazol-3-yl)pyridin-2-yl]-2,3-dihydro-1H-pyrrolo[3,4-c]pyridin-1-one], the pKi in assay [2] (setting [4]) is above 10.05.
On the same count and under the same terms, the value for `CCCn1c(C)nnc1-c1cccc(N2Cc3c(cc(N(C)C(C)C)nc3CNC)C2=O)n1` [Example 64, 4-[(methylamino)methyl]-6-[methyl(propan-2-yl)amino]-2-[6-(5-methyl-4-propyl-4H-1,2,4-triazol-3-yl)pyridin-2-yl]-2,3-dihydro-1H-pyrrolo[3,4-c]pyridin-1-one] was above 9.77; that for `CCc1nnc(-c2cccc(N3Cc4c(cc(N(C)C(C)C)nc4CNC)C3=O)n2)n1CC` [Example 67, 2-[6-(4,5-diethyl-4H-1,2,4-triazol-3-yl)pyridin-2-yl]-4-[(methylamino)methyl]-6-[methyl(propan-2-yl)amino]-2,3-dihydro-1H-pyrrolo[3,4-c]pyridin-1-one] was 8.89.
With `CCNc1cc2c(c(CNC)n1)CN(c1cccc(-c3nncn3C(C)C)n1)C2=O` [Example 77, 6-(ethylamino)-4-[(methylamino)methyl]-2-{6-[4-(propan-2-yl)-4H-1,2,4-triazol-3-yl]pyridin-2-yl}-2,3-dihydro-1H-pyrrolo[3,4-c]pyridin-1-one], in assay [2] (HPK1 mobility shift assay), the pKi was 9.17.
With `CCCn1cnnc1-c1cccc(N2Cc3c(cc(N(CC)C(C)C)nc3CNC)C2=O)n1` [Example 99, 6-[ethyl(propan-2-yl)amino]-4-[(methylamino)methyl]-2-[6-(4-propyl-4H-1,2,4-triazol-3-yl)pyridin-2-yl]-2,3-dihydro-1H-pyrrolo[3,4-c]pyridin-1-one], the pKi in assay [2] (HPK1 mobility shift assay) was 9.08.
With `CCn1c(C)nnc1-c1cccc(N2Cc3c(cc(N4CCC[C@H]4C)nc3CNC)C2=O)n1` [Example 121, 2-[6-(4-ethyl-5-methyl-4H-1,2,4-triazol-3-yl)pyridin-2-yl]-4-[(methylamino)methyl]-6-[(2R)-2-methylpyrrolidin-1-yl]-2,3-dihydro-1H-pyrrolo[3,4-c]pyridin-1-one], the pIC50 in assay [1] (setting [5]) is 7.21.
The same measure, in the same setting: the value for `CCCn1c(C)nnc1-c1cccc(N2Cc3c(cc(N4CCC[C@H]4C)nc3CN)C2=O)n1` [Example 133, 4-(aminomethyl)-2-[6-(5-methyl-4-propyl-4H-1,2,4-triazol-3-yl)pyridin-2-yl]-6-[(2R)-2-methylpyrrolidin-1-yl]-2,3-dihydro-1H-pyrrolo[3,4-c]pyridin-1-one] was 6.63; that for `CCCn1c(C)nnc1-c1cccc(N2Cc3c(cc(N4CCC[C@@H]4C)nc3CNC)C2=O)n1` [Example 134, 4-[(methylamino)methyl]-2-[6-(5-methyl-4-propyl-4H-1,2,4-triazol-3-yl)pyridin-2-yl]-6-[(2S)-2-methylpyrrolidin-1-yl]-2,3-dihydro-1H-pyrrolo[3,4-c]pyridin-1-one] was 7.28; that for `CCCn1c(C)nnc1-c1cccc(N2Cc3c(cc(N4CCC[C@@H]4C)nc3CN)C2=O)n1` [Example 159] was 6.95.
Still for that read-out and setting: the value for `Cc1nnc(-c2cccc(N3Cc4c(cc(N5CCCC5(C)C)nc4CN)C3=O)n2)n1C(C)C` [Example 164] was 7.19.
Take `CNCc1nc(N(C)C)cc2c1CN(c1cccc(-c3nncn3[C@@H](C)C(C)C)n1)C2=O` [Example 178]: in assay [2] (HPK1 mobility shift assay), the pKi was 9.77.
For the compound `CNCc1nc(C2(C)CC2)cc2c1CN(c1cccc(-c3nncn3C3CCCC3)n1)C2=O` [Example 179], the pKi in assay [2] (HPK1 mobility shift assay) is 9.33.
As for `CNCc1nc(N(C)C)cc2c1CN(c1cccc(-c3nncn3[C@H](C)C(C)C)n1)C2=O` [Example 182], the pKi in assay [2] (HPK1 mobility shift assay) is 9.43.
Still for that read-out and setting: under `CCCn1c(CC)nnc1-c1cccc(N2Cc3c(cc(N4CCC[C@H]4C)nc3CN)C2=O)n1` [Example 186] stands 8.72; under `CNCc1nc(C2(C)CC2)cc2c1CN(c1cccc(-c3nnc(C)n3C3CCC3)n1)C2=O` [Example 187], 7.59.
Take `Cc1nnc(-c2cccc(N3Cc4c(cc(C5(C)CC5)nc4CN)C3=O)n2)n1C1CCC1` [Example 188]: the pKi in assay [2] (HPK1 mobility shift assay) was 7.39.
